Values of other authors, collected in article PMC3725996 (Bioorganic & medicinal chemistry letters, 2010).

Assays:
[1] = system: nicotine self-administration; settings: rats; ref [17]
[2] = system: extracellular DA in rat nucleus accumbens; settings: following acute or repeated nicotine administration, ref [16]

## Cc1ccc[n+](CCCCCCCCCCCC[n+]2cccc(C)c2)c1.[Br-].[Br-] [bPiDDB 1, N,N′-dodecane-1,12-diyl-bis-3-picolinium dibromide]
Oral route, ref Albayati et al., unpublished data
  Oral bioavailability: limited bioavailability when given by the oral route
Subcutaneous delivery, 14C-bPiDDB, ref [19]–[20]
  Brain bioavailability: brain-bioavailable after subcutaneous delivery
[1]
  Effect on nicotine self-administration: dose-dependently decreased nicotine self-administration
  Effect on sucrose-maintained responding: but not sucrose-maintained responding
[2]
  Effect on increase in extracellular DA in nucleus accumbens: dose-dependently reduced the increase in extracellular DA
